Like-named read-outs stand apart in the source and are kept apart here.
Legend:
PI3Kα = target: T1, PI3Kα (Homo sapiens, UniProt P42336); assay: PI3Kα molecular activity test (ADP-GLO); assay type: biochemical; conditions: for Selectivity (PI3Kδ IC50/PI3KαIC50): PI3Kδ IC50/PI3Kα IC50; for IC50: recombinant protein, 100 μM ATP, 2 hours at room temperature
T1 construct: purchased Carna Bioscience
Procedure: (§1) Instrument: ELISA Reader Envision™ (PerkinElmer, USA)
(§2) Materials: Human recombinant PI3K and PI3Kδ proteins, purchased from Carna Bioscience; ADP-GLO kit, purchased from Promega.
(§3) Take the PI3Kα Molecular Activity Test as an Example to Describe the Text Method of the PI3K Subtypes
(§4) PI3K-α recombinant protein and substrate ATP were diluted with kinase reaction buffer (50 mM Tris-HCl, pH 7.4, 2.1 mM DTT, 0.05% Tween-20, 10 mM MgCl2). […] The specific reaction system was 2% of DMSO, 0.8 ng/μL PI3K-α, and 100 μM ATP, the positive compound control groups and control wells were set, and there were 3 multiple-wells for each concentration of each sample. After incubating for 2 hours at room temperature, ADP-GLO Reagent and Kinase Detection Reagent were added respectively, and then Envision™ was used to detect the […] readings. The activity rate of the samples were calculated by the sample readings, and the calculation formula was: activity rate=(ODcompound−ODcontrol)/(ODDMSO−ODcontro) ×100%.

SW48 (PIK3CA mut) = assay: Tumor cell proliferation, CCK8 method, SW48; assay type: cell-based; conditions: CCK8, SW48, read-out: SW48 (PIK3CA mut) proliferation IC50
Procedure: (§5) The IC50 value was calculated using Graphpad Prism V5.0 software.

KPL4 (PIK3CA mut) = assay: Tumor cell proliferation, CCK8 method, KPL4; assay type: cell-based; conditions: CCK8, KPL4; read-out: KPL4 (PIK3CA mut) proliferation IC50
Procedure: as §5

PI3Kδ = target: T2, PI3Kδ (Homo sapiens, UniProt O00329); assay: PI3Kδ molecular activity test (ADP-GLO); assay type: biochemical; conditions: recombinant protein
T2 construct: purchased Carna Bioscience
Procedure: as §1, §2, §3, §4

MCF7 (PIK3CA mut) = assay: Tumor cell proliferation, CCK8 method, MCF7; assay type: cell-based, human; conditions: CCK8, MCF7, read-out: MCF7 (PIK3CA mut) proliferation IC50
Procedure: as §5

ZR-75-1 (PTEN loss) = assay: Tumor cell proliferation, CCK8 method, ZR-75-1; assay type: cell-based; conditions: CCK8, ZR-75-1
Procedure: as §5

T2 sequence (O00329 whole entry): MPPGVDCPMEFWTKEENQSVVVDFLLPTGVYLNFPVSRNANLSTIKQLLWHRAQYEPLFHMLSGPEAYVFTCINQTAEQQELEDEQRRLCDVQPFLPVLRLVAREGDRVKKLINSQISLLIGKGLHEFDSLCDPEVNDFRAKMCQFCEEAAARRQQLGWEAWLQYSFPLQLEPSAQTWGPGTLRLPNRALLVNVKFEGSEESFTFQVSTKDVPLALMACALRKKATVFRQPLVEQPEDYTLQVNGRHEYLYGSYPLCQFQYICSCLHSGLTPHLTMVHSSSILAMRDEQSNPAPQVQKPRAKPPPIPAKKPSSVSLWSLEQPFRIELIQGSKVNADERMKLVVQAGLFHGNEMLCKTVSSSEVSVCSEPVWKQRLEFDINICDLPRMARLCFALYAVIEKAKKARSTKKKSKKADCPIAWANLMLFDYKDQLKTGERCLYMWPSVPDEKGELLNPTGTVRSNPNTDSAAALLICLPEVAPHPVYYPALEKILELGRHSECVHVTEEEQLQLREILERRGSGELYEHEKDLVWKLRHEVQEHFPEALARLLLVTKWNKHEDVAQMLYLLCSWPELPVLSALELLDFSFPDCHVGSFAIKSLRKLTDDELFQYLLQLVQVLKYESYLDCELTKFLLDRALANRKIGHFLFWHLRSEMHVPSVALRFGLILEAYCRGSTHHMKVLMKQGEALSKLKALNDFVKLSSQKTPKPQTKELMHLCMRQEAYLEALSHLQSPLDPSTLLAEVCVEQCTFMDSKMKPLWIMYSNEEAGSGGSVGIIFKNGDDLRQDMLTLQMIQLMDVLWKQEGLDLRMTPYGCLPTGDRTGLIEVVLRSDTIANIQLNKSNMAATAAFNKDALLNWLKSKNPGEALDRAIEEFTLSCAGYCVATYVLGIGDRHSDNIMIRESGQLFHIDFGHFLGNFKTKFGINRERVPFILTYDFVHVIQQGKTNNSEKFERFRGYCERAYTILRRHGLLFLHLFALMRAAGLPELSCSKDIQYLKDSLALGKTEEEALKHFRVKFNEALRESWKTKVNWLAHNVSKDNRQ
T2 sequence (P27986 whole entry partner): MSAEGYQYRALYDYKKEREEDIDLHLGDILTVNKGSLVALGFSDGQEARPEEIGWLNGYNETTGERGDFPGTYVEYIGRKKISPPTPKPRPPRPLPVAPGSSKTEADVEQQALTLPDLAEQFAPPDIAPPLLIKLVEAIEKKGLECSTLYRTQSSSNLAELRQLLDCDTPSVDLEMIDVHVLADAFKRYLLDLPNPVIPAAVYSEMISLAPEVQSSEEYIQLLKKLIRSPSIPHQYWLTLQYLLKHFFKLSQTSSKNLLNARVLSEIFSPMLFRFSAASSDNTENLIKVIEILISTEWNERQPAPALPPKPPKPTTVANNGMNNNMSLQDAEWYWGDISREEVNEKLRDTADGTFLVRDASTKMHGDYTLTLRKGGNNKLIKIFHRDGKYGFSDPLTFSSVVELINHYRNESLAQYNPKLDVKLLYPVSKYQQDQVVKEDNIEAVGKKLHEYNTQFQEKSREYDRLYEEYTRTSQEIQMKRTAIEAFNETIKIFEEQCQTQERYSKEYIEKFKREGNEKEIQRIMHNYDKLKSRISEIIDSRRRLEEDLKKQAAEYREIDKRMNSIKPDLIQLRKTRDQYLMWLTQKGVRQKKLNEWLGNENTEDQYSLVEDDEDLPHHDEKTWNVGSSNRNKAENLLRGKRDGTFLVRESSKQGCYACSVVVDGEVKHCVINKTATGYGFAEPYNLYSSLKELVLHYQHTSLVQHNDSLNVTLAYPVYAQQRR
T1 sequence (P42336 whole entry): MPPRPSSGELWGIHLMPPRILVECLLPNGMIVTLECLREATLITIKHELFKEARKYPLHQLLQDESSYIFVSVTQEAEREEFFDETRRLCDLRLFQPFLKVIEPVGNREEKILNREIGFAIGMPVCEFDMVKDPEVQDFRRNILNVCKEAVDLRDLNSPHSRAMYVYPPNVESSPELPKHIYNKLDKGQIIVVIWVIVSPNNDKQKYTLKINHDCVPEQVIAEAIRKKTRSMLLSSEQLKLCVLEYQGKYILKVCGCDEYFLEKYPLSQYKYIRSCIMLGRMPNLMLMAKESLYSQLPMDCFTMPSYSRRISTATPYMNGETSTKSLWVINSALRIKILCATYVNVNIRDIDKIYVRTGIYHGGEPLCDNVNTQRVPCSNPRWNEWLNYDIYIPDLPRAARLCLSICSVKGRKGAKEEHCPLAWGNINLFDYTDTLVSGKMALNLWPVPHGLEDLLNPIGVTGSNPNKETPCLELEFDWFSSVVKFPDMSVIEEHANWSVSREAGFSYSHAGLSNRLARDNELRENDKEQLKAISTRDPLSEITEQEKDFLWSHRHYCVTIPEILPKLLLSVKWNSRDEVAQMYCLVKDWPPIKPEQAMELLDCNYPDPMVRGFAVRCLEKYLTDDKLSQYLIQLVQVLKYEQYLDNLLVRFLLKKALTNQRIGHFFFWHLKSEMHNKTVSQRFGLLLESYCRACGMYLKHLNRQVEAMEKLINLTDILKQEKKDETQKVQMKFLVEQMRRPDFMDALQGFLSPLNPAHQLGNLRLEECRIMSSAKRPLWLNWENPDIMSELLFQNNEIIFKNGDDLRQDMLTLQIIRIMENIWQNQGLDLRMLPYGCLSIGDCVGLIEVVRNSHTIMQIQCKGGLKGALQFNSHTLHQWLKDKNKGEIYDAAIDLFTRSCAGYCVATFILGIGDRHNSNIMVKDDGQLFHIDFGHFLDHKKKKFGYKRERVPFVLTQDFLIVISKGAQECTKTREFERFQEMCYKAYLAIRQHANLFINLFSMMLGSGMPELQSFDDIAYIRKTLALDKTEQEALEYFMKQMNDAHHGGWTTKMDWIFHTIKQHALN
T1 sequence (P27986 whole entry partner): as the sequence (P27986 whole entry partner) above

Row | SMILES | Selectivity (PI3Kδ IC50/PI3KαIC50) (PI3Kα) | IC50 (PI3Kα) [nM] | IC50 (SW48 (PIK3CA mut); Homo sapiens) [nM] | IC50 (KPL4 (PIK3CA mut)) [nM] | IC50 (PI3Kδ) [nM] | IC50 (MCF7 (PIK3CA mut); Homo sapiens) [nM] | IC50 (ZR-75-1 (PTEN loss); Homo sapiens) [nM] | IC50 (SW48 (PIK3CA mut)) [nM] | IC50 (MCF7 (PIK3CA mut)) [nM] | IC50 (ZR-75-1 (PTEN loss)) [nM]
1 | COc1c(OCCNS(C)(=O)=O)ccc2c(=O)n(C)c(NC(=O)c3cnc(N)nc3)nc12 [8a-30, 2-amino-N-(8-methoxy-3-methyl-7-(2-(methylsulfonamido)ethoxy)-4-oxo-3,4-dihydroquinazolin-2-yl) pyrimidine-5-carboxamide] | II (“II” represents 5-10 times) | < 20 | 20 to 200 | 20 to 200 | 20 to 200 | < 20 | 200 to 1000 | – | – | –
2 | COc1c(OC[C@@H](O)CN2CCOCC2)ccc2c(=O)n(C)c(NC(=O)c3ccc(N)nc3)nc12 [8a-38, (S)-6-amino-N-(7-(2-hydroxy-3-morpholinopropoxy)-8-methoxy-3-methyl-4-oxo-3,4-dihydroouinazolin-2-yl) nicotinamide] | II (“II” represents 5-10 times) | < 20 | 20 to 200 | 20 to 200 | 20 to 200 | < 20 | 200 to 1000 | – | – | –
3 | COc1c(OC[C@H](O)CN2CCOCC2)ccc2c(=O)n(C)c(NC(=O)c3ccc(N)nc3)nc12 [8a-39, (R)-6-amino-N-(7-(2-hydroxy-3-morpholinopropoxy)-8-methoxy-3-methyl-4-oxo-3,4-dihydroquinazolin-2-yl) nicotinamide] | II (“II” represents 5-10 times) | < 20 | 20 to 200 | 20 to 200 | 20 to 200 | < 20 | 200 to 1000 | – | – | –
4 | COc1c(OCCNS(C)(=O)=O)ccc2c(=O)n(C)c(NC(=O)c3ccc(N)nc3)nc12 [8a-40, 6-amino-N-(8-methoxy-3-methyl-7-(2-(methylsulfonamido)ethoxy)-4-oxo-3,4-dihydroquinazoline-2-yl) nicotinamide] | II (“II” represents 5-10 times) | < 20 | 20 to 200 | 20 to 200 | 20 to 200 | < 20 | 200 to 1000 | – | – | –
5 | CCn1c(NC(=O)c2cnc(N)nc2)nc2c(OC)c(OCC(N)=O)ccc2c1=O [8b-2] | III (“III” represents >10 times) | < 20 | 20 to 200 | 20 to 200 | 20 to 200 | < 20 | 20 to 200 | – | – | –
6 | CCn1c(NC(=O)c2cnc(N)nc2)nc2c(OC)c(OCCS(N)(=O)=O)ccc2c1=O [8b-11] | II (“II” represents 5-10 times) | < 20 | 20 to 200 | < 20 | < 20 | < 20 | 20 to 200 | – | – | –
7 | CCn1c(NC(=O)c2cnc(N)nc2)nc2c(OC)c(OC[C@@H](O)CN3CCOCC3)ccc2c1=O [8b-27, (S)-2-amino-N-(3-ethyl-7-(2-hydroxy-3-morpholinopropoxy)-8-methoxy-4-oxo-3,4-dihydroquinazolin-2-yl) pyrimidine-5-carboxamide] | II (“II” represents 5-10 times) | < 20 | 20 to 200 | 20 to 200 | 200 to 1000 | < 20 | 200 to 1000 | – | – | –
8 | CCn1c(NC(=O)c2cnc(N)nc2)nc2c(OC)c(OC[C@H](O)CN3CCOCC3)ccc2c1=O [8b-28, (R)-2-amino-N-(3-ethyl-7-(2-hydroxy-3-morpholinopropoxy)-8-methoxy-4-oxo-3,4-dihydroquinazolin-2-yl) pyrimidine-5-carboxamide] | II (“II” represents 5-10 times) | < 20 | 20 to 200 | 20 to 200 | 200 to 1000 | < 20 | 200 to 1000 | – | – | –
9 | CCn1c(NC(=O)c2cnc(N)nc2)nc2c(OC)c(OCCNS(C)(=O)=O)ccc2c1=O [8b-29, 2-amino-N-(3-ethyl-8-methoxy-7-(2-(methylsulfonamido)ethoxy)-4-oxo-3,4-dihydroquinazolin-2-yl) pyrimidine-5-carboxamide] | III (“III” represents >10 times) | < 20 | 20 to 200 | 20 to 200 | 200 to 1000 | < 20 | 200 to 1000 | – | – | –
10 | CCn1c(NC(=O)c2cnc(N)nc2)nc2c(OC)c(OCC(C)NS(C)(=O)=O)ccc2c1=O (stereo not shown) [8b-30, 2-amino-N-(3-ethyl-8-methoxy-7-(2-(methylsulfonamido)propoxy)-4-oxo-3,4-dihydroquinazolin-2-yl) pyrimidine-5-carboxamide] | II (“II” represents 5-10 times) | < 20 | – | 20 to 200 | 200 to 1000 | – | – | 20 to 200 | < 20 | 200 to 1000
11 | CCn1c(NC(=O)c2ccc(N)nc2)nc2c(OC)c(OC[C@@H](O)CN3CCOCC3)ccc2c1=O [8b-46, (S)-6-amino-N-(3-ethyl-7-(2-hydroxy-3-morpholinopropoxy)-8-methoxy-4-oxo-3,4-dihydroquinazolin-2-yl) nicotinamide] | II (“II” represents 5-10 times) | < 20 | 20 to 200 | 20 to 200 | 200 to 1000 | < 20 | 200 to 1000 | – | – | –
12 | CCn1c(NC(=O)c2ccc(N)nc2)nc2c(OC)c(OC[C@H](O)CN3CCOCC3)ccc2c1=O [8b-47, (R)-6-amino-N-(3-ethyl-7-(2-hydroxy-3-morpholinopropoxy)-8-methoxy-4-oxo-3,4-dihydroquinazolin-2-yl) nicotinamide] | II (“II” represents 5-10 times) | < 20 | 20 to 200 | 20 to 200 | 200 to 1000 | < 20 | 200 to 1000 | – | – | –
13 | CCn1c(NC(=O)c2ccc(N)nc2)nc2c(OC)c(OCC(=O)NCCN3CCOCC3)ccc2c1=O [8b-48, 6-amino-N-(3-ethyl-8-methoxy-7-(2-((2-morpholinoethyl)amino)-2-oxoethoxy)-4-oxo-3,4-dihydroquinazolin-2-yl)nicotinamide] | II (“II” represents 5-10 times) | < 20 | 20 to 200 | 20 to 200 | 200 to 1000 | < 20 | 200 to 1000 | – | – | –
14 | CCn1c(NC(=O)c2cnc(N)nc2)cc2c(OC)c(OCCCN3CCOCC3)ccc2c1=O [8b′-1] | I (“I” represents <5 times) | < 20 | 20 to 200 | 20 to 200 | < 20 | < 20 | 20 to 200 | – | – | –
15 | CCn1c(NC(=O)c2cnc(N)nc2)cc2c(OC)c(OCC(N)=O)ccc2c1=O [8b′-2] | III (“III” represents >10 times) | < 20 | 20 to 200 | 20 to 200 | 20 to 200 | < 20 | 20 to 200 | – | – | –
16 | Cn1c(NC(=O)c2cnc(N)nc2)nc2c3c(ccc2c1=O)OCCCCO3 [14a-4] | I (“I” represents <5 times) | < 20 | 200 to 1000 | 200 to 1000 | < 20 | 20 to 200 | 200 to 1000 | – | – | –
17 | Cn1c(NC(=O)c2cnc(N)nc2)nc2c3c(ccc2c1=O)OCCCCCO3 [14a-5] | II (“II” represents 5-10 times) | < 20 | 200 to 1000 | 200 to 1000 | 20 to 200 | 20 to 200 | 200 to 1000 | – | – | –
18 | Cn1c(NC(=O)c2cnc(N)nc2)nc2c3c(ccc2c1=O)OCCCCCCO3 [14a-6] | II (“II” represents 5-10 times) | < 20 | 200 to 1000 | 200 to 1000 | 20 to 200 | 20 to 200 | 200 to 1000 | – | – | –
19 | Cn1c(NC(=O)c2cnc(N)nc2)nc2c3c(ccc2c1=O)OCCCCCCCO3 [14a-7] | II (“II” represents 5-10 times) | < 20 | 200 to 1000 | 200 to 1000 | 20 to 200 | 20 to 200 | 200 to 1000 | – | – | –
20 | Cn1c(NC(=O)c2cnc(N)nc2)nc2c3c(ccc2c1=O)OCCCCCCCCO3 [14a-8] | I (“I” represents <5 times) | < 20 | 20 to 200 | 20 to 200 | < 20 | < 20 | 20 to 200 | – | – | –
21 | CCn1c(NC(=O)c2cnc(N)nc2)nc2c3c(ccc2c1=O)OCCCCO3 [14b-4] | I (“I” represents <5 times) | 20 to 200 | 200 to 1000 | 20 to 200 | 20 to 200 | < 20 | 200 to 1000 | – | – | –
22 | CCn1c(NC(=O)c2cnc(N)nc2)nc2c3c(ccc2c1=O)OCCCCCCCCO3 [14b-8] | I (“I” represents <5 times) | < 20 | 200 to 1000 | 20 to 200 | < 20 | < 20 | 200 to 1000 | – | – | –

Source: patent US12404269B2, “Aminoquinazolinone and aminoisoquinolinone derivatives and application thereof” (ZHEJIANG UNIVERSITY, priority 2018, dated 2025)
